# Source: US20240043928A1, “BIOMARKERS FOR MYELODYSPLASTIC SYNDROME (MDS) AND METHODS OF USING THE SAME” (Eisai R&D Management Co., Ltd., priority 2020, published 2024)
# Read-outs that look alike come from different tables or passages of the source.
# Key:
# [1] = tested on: xenograft models of leukemia expressing mutant SF3B1; details: oral administration; cited from earlier work
# [2] = Non-human primate toxicity; assay type: in vivo
# [3] = tested on: TMEM14C AJ/CJ ratio and other splicing markers; test: Phase I study NCT02841540: pharmacodynamics, splicing markers in peripheral blood (Nanostring nCounter panel); assay type: in vivo, human
# Procedure: (§1) Plasma samples for PK analyses were collected during Cycle 1 on Day 1 and Day 4 (pre-dose and 0.5, 1, 2, 4, 6, 8, 10, and 24 hours post-dose), and pre-dose and 4 hours post-dose on Cycle 1 on Day 15. PK analyses were conducted using Phoenix® VVinNonlin. For pharmacodynamic and biomarker analyses, peripheral blood samples were collected into PAXgene® Blood RNA Tubes (BD Biosciences, San Jose, California) at Cycle 1 Day 1 (pre-dose and 1, 2, 4, 10 and 24 hours post-dose) for all patients. RNA was extracted using Maxwell® simplyRNA Blood Kit (Promega, Madison, Wisconsin). Target engagement (i.e., splicing modulation) was measured by assessing relative expression of representative pre- and mature-mRNA or aberrant and canonical transcripts at post-dose time points comparing to pre-dose, using a customized Nanostring nCounter gene expression panel (NanoString Technologies, Seattle, Washington). For splicing mutation analysis, peripheral blood was collected into PAXgene® Blood DNA Tubes (BD Biosciences, San Jose, California). Baseline splicing mutations were identified using the Focus:Myeloid™ Next Generation Sequencing (NGS) panel determined centrally by Cancer Genetics Inc. (Rutherford, NJ). Biomarker analyses of pretreatment samples were conducted using one-way ANOVA and MedCalc® software. Receiver-Operating-Characteristics (ROC) curves were performed according to the methodology described by Hanley and McNeil (Radiology. 1982;143(1):29-36; see also Zweig and Campbell, Clin Chem. 1993;39(4):561-577).
# [4] = Phase I study NCT02841540: plasma pharmacokinetics; assay type: in vivo, human; details: for Cmax / half-life / AUC(0-t) / Tmax: human, plasma; for Cmax / half-life / AUC(0-t): geometric mean (CV %); for AUC(0-t): read-out: AUC0-24; for Tmax: median
# Procedure: as §1
# [5] = tested on: patients with myelodysplastic syndrome (MDS), chronic myelomonocytic leukemia (CMML), or acute myeloid leukemia (AML); test: Phase I study NCT02841540: clinical response and transfusion independence; assay type: in vivo, human
# Procedure: Clinical responses were assessed using the 2006 International Working Group (IWG) response criteria for MDS (Cheson et al. Blood. 2006;108:419-425), the IWG 2003 criteria for AML, and the 2015 international consortium proposal of uniform response criteria for myelodysplastic/myeloproliferative neoplasms (MDS/MPN) and CMML (Savona et al. Blood. 2015;125(12):1857-1865). Peripheral blood sampling, bone marrow aspirates, bone marrow biopsies, marrow cytogenetics, and cellular composition by flow cytometry were performed at the time of screening, and after Cycles 1, 2, and 4. Beyond Cycle 4, bone marrow aspirates were performed as clinically indicated based on changes in peripheral blood count, or as needed to establish either complete response or disease progression. An independent central confirmation and interpretation was performed for disease assessments.
# [6] = tested on: human acute myeloid leukemia (AML) cell lines, including mutant U2AF1, SRSF2, and SF3B1 cells; details: panel of human AML cell lines incl. mutant U2AF1, SRSF2, SF3B1 cells; cited from earlier work
# [7] = patients who experienced RBC TI
# [8] = patient: CMML, IPSS Lower, starting dose 7 mg
# [9] = patient: MDS (baseline Hb 9.1 g/dL), IPSS Lower, starting dose 5 mg
# [10] = patient: MDS, IPSS Higher, starting dose 2 mg
# [11] = patient: MDS, IPSS Higher, starting dose 7 mg
# [12] = patient: MDS, IPSS Lower, donor one, starting dose 7 mg
# [13] = patient: MDS, IPSS Lower, starting dose 2 mg (7 mg during last two RBC TI periods)
# [14] = patient: MDS, IPSS Lower, starting dose 3.5 mg
# [15] = patient: MDS/MPN (RARS-T), IPSS Lower, starting dose 2 mg
structure (smiles),measurement,setting,value
"C/C(=C\C=C\[C@@H](C)c1ccccn1)[C@H]1OC(=O)C[C@H](O)CC[C@@](C)(O)[C@@H](OC(=O)N2CCN(C)CC2)/C=C/[C@@H]1C [Compound 1, (2S,3S,4E,6S,7R,10R)-7,10-dihydroxy-3,7-dimethyl-12-oxo-2-[(2E,4E,6R)-6-(pyridine-2-yl)hepta-2,4-dien-2-yl]oxacyclododec-4-en-6-yl-4-methylpiperazine-1-carboxylate]",in vivo antitumor activity,[1],induces in vivo antitumor activity
same,dose-limiting toxicity (DLT),[2],gastrointestinal distress and colitis
same,modulation of splicing markers post-dosing,"[3]; PBMC samples, NanoString probes, 61 splicing markers",general modulation of splicing markers post-dosing was observed
same,modulation of relative expression of splicing markers,"[3]; heat map, FIG. 5",dose-dependent modulation
same,change of the TMEM14C AJ/CJ ratio with dosing,[3]; [7],Downregulation
same,time of nadir of the TMEM14C AJ/CJ ratio,[3]; [7],2 to 10 h
same,Cmax,"[4]; oral, 1.0 mg once daily",0.835 ng/mL
same,half-life,"[4]; oral, 1.0 mg once daily",5.1 h
same,AUC(0-t),"[4]; oral, 1.0 mg once daily",4.89 ng·h/mL
same,Tmax,"[4]; oral, 1.0 mg once daily",2 h
same,Cmax,"[4]; oral, 2.0 mg once daily",1.09 ng/mL
same,half-life,"[4]; oral, 2.0 mg once daily",5.4 h
same,AUC(0-t),"[4]; oral, 2.0 mg once daily",8.39 ng·h/mL
same,Tmax,"[4]; oral, 2.0 mg once daily",2 h
same,Cmax,"[4]; oral, 3.5 mg once daily",2.78 ng/mL
same,half-life,"[4]; oral, 3.5 mg once daily",5.4 h
same,AUC(0-t),"[4]; oral, 3.5 mg once daily",15.6 ng·h/mL
same,Tmax,"[4]; oral, 3.5 mg once daily",1.5 h
same,Cmax,"[4]; oral, 5.0 mg once daily",3.94 ng/mL
same,half-life,"[4]; oral, 5.0 mg once daily",5.8 h
same,AUC(0-t),"[4]; oral, 5.0 mg once daily",24.5 ng·h/mL
same,Tmax,"[4]; oral, 5.0 mg once daily",1 h
same,Cmax,"[4]; oral, 7.0 mg once daily",9.61 ng/mL
same,half-life,"[4]; oral, 7.0 mg once daily",5.3 h
same,AUC(0-t),"[4]; oral, 7.0 mg once daily",39.4 ng·h/mL
same,Tmax,"[4]; oral, 7.0 mg once daily",1 h
same,Cmax,"[4]; oral, 10 mg once daily",12.7 ng/mL
same,half-life,"[4]; oral, 10 mg once daily",5.5 h
same,AUC(0-t),"[4]; oral, 10 mg once daily",51 ng·h/mL
same,Tmax,"[4]; oral, 10 mg once daily",1 h
same,Cmax,"[4]; oral, 12 mg once daily",12.2 ng/mL
same,half-life,"[4]; oral, 12 mg once daily",5.4 h
same,AUC(0-t),"[4]; oral, 12 mg once daily",64.7 ng·h/mL
same,Tmax,"[4]; oral, 12 mg once daily",2 h
same,Cmax,"[4]; oral, 14 mg once daily",25.6 ng/mL
same,half-life,"[4]; oral, 14 mg once daily",5.1 h
same,AUC(0-t),"[4]; oral, 14 mg once daily",108 ng·h/mL
same,Tmax,"[4]; oral, 14 mg once daily",1 h
same,Cmax,"[4]; oral, 40 mg once daily",73.3 ng/mL
same,half-life,"[4]; oral, 40 mg once daily",4.5 h
same,AUC(0-t),"[4]; oral, 40 mg once daily",265 ng·h/mL
same,Tmax,"[4]; oral, 40 mg once daily",0.5 h
same,Cmax,[4]; 20 mg once daily,33.6 ng/mL
same,half-life,[4]; 20 mg once daily,5.1 h
same,AUC(0-t),[4]; 20 mg once daily,142 ng·h/mL
same,Tmax,[4]; 20 mg once daily,0.75 h
same,Cmax,[4]; 30 mg once daily,34.4 ng/mL
same,half-life,[4]; 30 mg once daily,5.3 h
same,AUC(0-t),[4]; 30 mg once daily,159 ng·h/mL
same,Tmax,[4]; 30 mg once daily,1.25 h
same,absorption,[4]; preliminary PK analysis,rapidly absorbed
same,dose dependence of plasma exposure,[4]; preliminary PK analysis,dose-proportional increase in plasma exposure
same,inter-individual variability on clearance/bioavailability,[4]; preliminary population PK modeling,about 34%
same,RBC TI periods,[5]; 4 patients with SF3B1 mutations and a diagnosis of AML,No RBC TI periods were observed
same,patients who experienced events of RBC TI,[5]; 5 of the 7 MDS patients with pre-treatment TMEM14C AJ/CJ >4.01,71%
same,patients who experienced RBC TI events,[5]; 5 of the 20 patients with missense SF3B1 mutations at study entry,25%
same,patients with intervals of >56 days without RBC transfusions,"[5]; 9 of 62 patients transfusion dependent at study entry, as of April 2020, all Schedule I",15%
same,RBC TI rate,[5]; CMML (1 subject),25%
same,RBC TI rate,[5]; MDS (8 cases),19%
same,complete or partial responses meeting 2006 IWG criteria,[5]; all patients,No complete or partial responses
same,Median duration of RBC TI,"[5]; human, in vivo",13 weeks
same,Median time to onset of RBC TI,"[5]; human, in vivo",15 weeks
same,"additional RBC TI cases, transfusion dependence prior to study entry not verified","[5]; human, in vivo","Two additional patients (1 AML, 1 MDS) experienced RBC TI periods of >56 days"
same,clinical benefit (platelet response) (MDS/MPN criteria),[5]; in the 4 subjects with CMML,1
same,complete cytogenetic remission (MDS/MPN criteria),[5]; in the 4 subjects with CMML,1
same,patients who experienced RBC TI at the 7 mg dose,[5]; of the patients with RBC TI,Four of the 9
same,patients whose first RBC TI initiated in weeks 1-24 of the study,[5]; of the patients with RBC TI,8 of the 9
same,platelet transfusion independence without RBC TI,"[5]; one higher risk MDS patient, 7 mg, Schedule II",22 week
same,Longest RBC TI Period,[5]; [8],66 days
same,Number of RBC TI Periods,[5]; [8],1
same,Time to First RBC TI,[5]; [8],4 days
same,Longest RBC TI Period,[5]; [9],87 days
same,Number of RBC TI Periods,[5]; [9],1
same,Time to First RBC TI,[5]; [9],398 days
same,Longest RBC TI Period,[5]; [10],121 days
same,Number of RBC TI Periods,[5]; [10],1
same,Time to First RBC TI,[5]; [10],126 days
same,Longest RBC TI Period,[5]; [11],107 days
same,Number of RBC TI Periods,[5]; [11],1
same,Time to First RBC TI,[5]; [11],104 days
same,Longest RBC TI Period,[5]; [12],98 days
same,Number of RBC TI Periods,[5]; [12],4
same,Time to First RBC TI,[5]; [12],73 days
same,Longest RBC TI Period,[5]; [13],85 days
same,Number of RBC TI Periods,[5]; [13],5
same,Time to First RBC TI,[5]; [13],88 days
same,Longest RBC TI Period,[5]; [14],98 days
same,Number of RBC TI Periods,[5]; [14],2
same,Time to First RBC TI,[5]; [14],101 days
same,Longest RBC TI Period,[5]; [15],56 days
same,Number of RBC TI Periods,[5]; [15],1
same,Time to First RBC TI,[5]; [15],111 days
same,period of platelet transfusion independence,[5]; the CMML patient with RBC TI,21 week
same,growth inhibitory activity,[6],shows growth inhibitory activity
